Source: patent US8361999B2, “Methods of treating cholesterol gallstone disease with ezetimibe” (Pontificia Universidad Catolica de Chile, priority 2005, dated 2013)

Columns and labels:
Format in all cases: in vivo, mouse
[1] = system: C57BL/6J mice; experiment: Lipid content and cholesterol saturation index in gallbladder bile; conditions: for Gallbladder Bile Bile salts / Gallbladder Bile Cholesterol / Gallbladder Bile Colesterol Saturation Index / Gallbladder Bile Phospholipids: 14 days
Procedure: Surgery and sample harvest. The groups were maintained for 14 days (protocol #1) or 30 days (protocol #2) in the different experimental conditions. During the last three days of the protocols, 24 h depositions were collected from the different groups (pool) to determine the fecal excretion of neutral sterols (cholesterol) and acidic sterols (bile salts). At the end of the time established in the protocols, the mice were anesthetized (between 08:00-10:00 AM) with an intraperitoneal pentobarbital injection in doses of 4.5 mg per 100 gr body weight (Amigo et al., 2000) and subjected to surgery. Standardized surgery consists in an extended […] and visualization of abdominal organs, including liver, biliary tree and gallbladder. First, we performed a resection of the gallbladder (cholecystectomy), with the cystic duct previously ligated (Amigo et al., 2002; Amigo et al., 2000; Amigo et al., 2003b). The gallbladder is removed and visually inspected to determine the presence of gallstones. Then, the gallbladder bile is extracted to analyze the presence of cholesterol crystals in the fresh samples under the microscope with polarized light (20×). Aliquots are stored at −20° C. for subsequent chemical analysis. Afterwards, the common biliary duct is cannulated (biliary fistula) with a P-10 polyethylene cannula to collect bile during 15 minutes, determine bile flow by gravimetry (1 g bile=1 ml; bile flow is expressed as μl/min/g of mouse liver) and for posterior chemical analysis of biliary lipids and glutathione, as specified later. […] Then, the liver is removed, weighted, frozen in liquid nitrogen and stored at −80 for subsequent analyses. The plasma is separated by centrifugation at 1,500 rpm and stored at −80° C. for later analysis. The animal protocols were approved by our institution Ethics Committee and the animals were treated according to international care rules for experimental animals.
Intestinal absorption of cholesterol and bile salts. The capacity of Ezetimibe to inhibit cholesterol and bile salt absorption was indirectly determined by quantification of neutral sterols (cholesterol) and acidic sterols (bile acids) present in the feces collected on day 12, 13 and 14 of the experiment (three days). In order to determine cholesterol (neutral sterols) fecal excretion, the feces were dried at 50° C. for three days and then weighted to obtain an average of fecal excretion per day (in grams). The feces were homogenized in a mortar, and 5 ml 2N NaOH:methanol, 1:1 are added per 100 mg (dry weight) aliquots of the homogenate. The sample is vortex and incubated at 60° C. for 1 h for saponification, then it is cooled and 5 ml petroleum ether is added followed by vigorous agitation to obtain the separation of the hydrophobic and hydrophilic phases. The samples are then centrifuged at 1,000 rpm for 10 minutes and the hydrophobic phase (upper layer) is recovered. Second and third extractions are performed by adding 5 ml petroleum ether to the hydrophilic phase. The hydrophobic phases are dried under gaseous nitrogen and the lipids are resuspended in 1 ml chloroform. 50 μl aliquots, in duplicate, are dried at room temperature, and total cholesterol is quantified according to the enzymatic method described above. The values obtained are expressed as μmoles cholesterol/day/100 g of mouse (Miettinen et al., 1965). In order to determine fecal excretion of bile acids the mice feces were collected during three days (days 12-14), dried at 50° C. for one week and weighted. The feces are then homogenized in a mortar; (^14C) cholic acid, 200,000 cpm is added to 1 g of the homogenate to determine the degree of recovery. The samples are then mixed with NaBr, NaOH and HCl, dissolved in ethanol and incubated at 120° C. for 8 h in a reflux system. The hydrolyzed fecal samples are resuspended in NaOH and dried under gaseous N2. The pellet obtained is resuspended in ethanol and run through Sep-Pak columns to eliminate all bile salts contaminants. […]

[2] = system: Bsep; experiment: Hepatic expression of bile salts transporter Bsep (Western blot)
Source text: (§1) Expression of Specific Bile Salts (Ntcp, Bsep), Phospholipid (MDR2) and Organic Anions or Glutathione (MRP2); And Determination of Glutathione Synthesis (Gluthamylcystein-Synthetase (GGCS)).
Western Blot analysis. We evaluated protein expression levels of the bile salts transporters Ntcp (sinusoidal pole) and Bsep (cannicular pole) by Western blotting in total liver membranes or liver plasma membranes from mice treated with the different diets. Total membranes were obtained from liver fragments homogenized in Tris-HCl pH 7.5, MgCl2 and sucrose. The homogenates were centrifuged at 1,000 g to separate nuclei, and the supernatants were then centrifuged at 100,000 g. The pellet, containing the total membranes, was resuspended in the buffer described above and proteins were quantified by the Bradford method. Aliquots containing 50 μg protein were separated by SDS-PAGE and transfer to nitrocellulose. The membranes were incubated in buffer TBS-T (Tris-HCl pH 7.5, NaCl and Tween-20), milk 5% w/v plus the antibodies to evaluate the different proteins (Bsep, Ntcp). The secondary antibodies were IgG anti rabbit or anti mouse coupled to peroxidase. The protein signals were detected by the ECL method.

[3] = system: MRP2; experiment: Hepatic expression of MRP2 (Northern blot); conditions: 14 days
Procedure: as §1
Total RNA extraction. 80 mg hepatic tissue frozen at −70° C. was homogenized in 800 μl solution D, following the method described by Chomczynski and Sacchi, 1987. The RNA concentration was calculated by measuring the absorbance at 260 nm and its purity by the ratio OD260/OD280. The samples are stored at −20° C. RNA electrophoresis. 10 μg of total RNA are dried under gaseous N2 or vacuum for 10 minutes. 10 μl loading buffer were added, and the samples heated to 65° C., loaded into a denaturing 1% agarose/formaldehyde gel and run at 100 volts for 4 hours. The RNA integrity was determined by the clear visualization of the 28 S and 18 S ribosomal RNAs (FIG. 8).
Northern Blot and hybridization with radioactive probes. The gel with the RNA samples is washed with DEPC H2O for 10 minutes to eliminate formaldehyde and then incubated for 20 minutes with 50 mM NaOH for partial RNA hydrolysis. After a 10 minute wash with DEPC H2O to eliminate NaOH, the samples are transferred from the gel to Nylon membranes (Hybond-N, Amersham Pharmacia) over night by a capillary system. […]
Probe labeling by “de novo synthesis”. […] The percentage of incorporated radioactivity into the probe was always over 60%. […]

With `O=C1[C@H](CC[C@H](O)c2ccc(F)cc2)[C@@H](c2ccc(O)cc2)N1c1ccc(F)cc1` [Ezetimibe, (−)-1-(4-fluorophenyl)-(3R)-[3-(4-fluorophenyl)-(.S)-hydroxypropyl]-(4S)-(4-hydroxyphenyl)-2-azetidinone] the “Gallbladder Bile Bile salts” value ([1]; Chow + Ezetimibe) was 65.00 mmol/L, the “Gallbladder Bile Cholesterol” value ([1]; Chow + Ezetimibe) was 1.19 mmol/L and the “Gallbladder Bile Colesterol Saturation Index” value ([1]; Chow + Ezetimibe) was 51.7%. The “Gallbladder Bile Phospholipids” value ([1]; Chow + Ezetimibe) was 11.62 mmol/L, the “Gallbladder Bile Bile salts” value ([1]; Lithogenic + Ezetimibe) was 70.37 mmol/L and the “Gallbladder Bile Cholesterol” value ([1]; Lithogenic + Ezetimibe) was 1.35 mmol/L. The “Gallbladder Bile Colesterol Saturation Index” value ([1]; Lithogenic + Ezetimibe) was 53.2%, the “Gallbladder Bile Phospholipids” value ([1]; Lithogenic + Ezetimibe) was 12.92 mmol/L and the “changes in cholesterol content, bile salts or lecitine in gallbladder bile” value ([1]; control diet) was “did not induce significant changes”. The “cholesterol saturation index, with vs without Ezetimibe” value ([1]; control diet) was “similar”, the “decrease of cholesterol content in the gallbladder bile” value ([1]; lithogenic diet) was 50-60% and the “reduction in the cholesterol saturation index” value ([1]; lithogenic diet) was 50%. For the same compound, the “hepatic expression of Bsep, lithogenic diet plus Ezetimibe vs lithogenic diet” value ([2]; 14 days) was “no significant differences”, the “Bsep hepatic protein expression level with Ezetimibe” value ([2]; FIG. 6 A, on both diets) was “does not show significant changes” and the “hepatic expression of MRP2, lithogenic diet plus Ezetimibe vs lithogenic diet” value [3] was “no significant differences”.
